Source: paper PMC8216263 (Pharmaceutical Biology, 2021)
Values after ≈ are worked out from the molar mass of the structure shown.

How the values were obtained:
OAT1 = target: T1, OAT1 (Homo sapiens, UniProt Q4U2R8); assay: Inhibition of OAT1-mediated 14C-PAH uptake in MDCK-OAT1 cells; format: cell-based
T1 construct: host or cells: MDCK
T1 sequence (Q4U2R8 1-563): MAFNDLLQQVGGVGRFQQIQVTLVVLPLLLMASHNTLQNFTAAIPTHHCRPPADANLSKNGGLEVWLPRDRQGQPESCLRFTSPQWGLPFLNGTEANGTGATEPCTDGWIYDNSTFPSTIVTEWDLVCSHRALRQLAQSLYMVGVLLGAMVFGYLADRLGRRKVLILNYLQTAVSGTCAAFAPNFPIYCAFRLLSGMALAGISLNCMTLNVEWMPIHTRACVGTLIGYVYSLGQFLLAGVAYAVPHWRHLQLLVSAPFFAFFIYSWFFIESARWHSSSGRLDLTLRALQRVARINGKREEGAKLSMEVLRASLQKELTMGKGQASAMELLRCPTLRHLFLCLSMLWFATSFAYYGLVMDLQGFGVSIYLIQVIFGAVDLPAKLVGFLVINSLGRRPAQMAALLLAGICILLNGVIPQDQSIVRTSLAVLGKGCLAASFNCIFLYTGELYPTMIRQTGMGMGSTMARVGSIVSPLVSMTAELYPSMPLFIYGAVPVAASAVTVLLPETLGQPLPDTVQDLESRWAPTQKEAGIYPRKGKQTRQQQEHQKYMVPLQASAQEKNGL
Experimental: Cells were cultured in DMEM supplemented with 10% FBS, 100 units/mL penicillin and 100 units/mL streptomycin. […] Cell culture flasks, 24-well cell culture plates, and transwell polycarbonate inserts (12 mm diameter, 0.4 μm pore size) were purchased from Corning Co-star Corp. (Bedford, MA).
The MDCK-OAT1, S2-OAT3, S2-OCT2 and HEK293-OATP1B1 cell lines were utilized in this study. […] Briefly, S2-OAT3, S2-OCT2 and S2-mock cells were trypsinized and uniformly suspended in the culture medium’s designated volume to provide a density of 2.0 × 10^5 cells/mL. A 1.0-mL aliquot of the cell suspension was added into each well of 24-well insert plates. HEK293-OATP1B1, MDCK-OAT1 and their mock cells were seeded in 24-well plates at a density of 1.5 × 10^5 cells/well. […] Three washes terminated the experiment with ice-cold DPBS buffer after removing the incubation buffer. Cells were lysed with 400 μL of […] sodium hydroxide solution. The cell lysate and 3.0 mL of aquasol-2 scintillation fluid were put into a scintillation flask. […] The final concentration of DMSO in the assay was less than 0.1%. All experiments were performed in triplicate.

MDR1 = target: T2, MDR1 (Homo sapiens, UniProt P08183); assay: Inhibition of MDR1-mediated rhodamine 123 efflux in MDCK-MDR1 cells; format: cell-based; conditions: for inhibitory effect on efflux of MDR1-mediated rhodamine 123: GA 50–5000 μg/L, PCA 10–1000 μg/L
T2 construct: host or cells: MDCK
T2 sequence (P08183 whole entry): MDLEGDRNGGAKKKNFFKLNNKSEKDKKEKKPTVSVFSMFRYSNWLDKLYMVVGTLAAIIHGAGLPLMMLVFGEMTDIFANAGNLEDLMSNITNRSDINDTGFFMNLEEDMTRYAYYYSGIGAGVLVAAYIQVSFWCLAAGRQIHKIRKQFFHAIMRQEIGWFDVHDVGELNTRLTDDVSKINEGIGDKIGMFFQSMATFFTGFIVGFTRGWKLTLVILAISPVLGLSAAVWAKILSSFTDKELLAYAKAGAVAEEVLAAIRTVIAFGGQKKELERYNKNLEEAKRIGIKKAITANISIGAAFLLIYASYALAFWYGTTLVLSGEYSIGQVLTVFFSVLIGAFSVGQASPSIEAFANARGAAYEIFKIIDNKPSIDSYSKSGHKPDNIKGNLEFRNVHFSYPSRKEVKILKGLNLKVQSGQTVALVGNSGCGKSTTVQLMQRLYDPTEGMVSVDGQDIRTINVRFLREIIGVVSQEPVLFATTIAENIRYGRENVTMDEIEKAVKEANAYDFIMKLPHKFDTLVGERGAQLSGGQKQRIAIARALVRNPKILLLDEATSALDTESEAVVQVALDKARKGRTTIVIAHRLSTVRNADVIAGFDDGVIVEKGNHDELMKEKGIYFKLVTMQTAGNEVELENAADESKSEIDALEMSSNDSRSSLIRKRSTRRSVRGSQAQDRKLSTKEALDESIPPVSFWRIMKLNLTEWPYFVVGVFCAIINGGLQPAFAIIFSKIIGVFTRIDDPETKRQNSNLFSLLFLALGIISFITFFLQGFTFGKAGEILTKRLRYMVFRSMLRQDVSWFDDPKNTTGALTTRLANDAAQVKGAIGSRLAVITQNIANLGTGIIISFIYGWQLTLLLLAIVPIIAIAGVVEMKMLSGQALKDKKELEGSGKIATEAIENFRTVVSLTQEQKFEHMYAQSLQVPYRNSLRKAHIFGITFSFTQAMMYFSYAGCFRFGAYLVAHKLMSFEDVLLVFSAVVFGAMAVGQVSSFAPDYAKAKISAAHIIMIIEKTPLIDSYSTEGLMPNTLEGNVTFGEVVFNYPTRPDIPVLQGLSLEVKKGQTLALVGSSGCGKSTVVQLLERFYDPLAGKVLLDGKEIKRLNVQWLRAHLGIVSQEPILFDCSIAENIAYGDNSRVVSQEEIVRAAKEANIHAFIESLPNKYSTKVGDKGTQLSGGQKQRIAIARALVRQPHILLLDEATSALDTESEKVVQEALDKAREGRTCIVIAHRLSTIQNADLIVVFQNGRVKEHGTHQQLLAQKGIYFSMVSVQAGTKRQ
Source text: The human multidrug resistance protein (MDR)1-transfected Madin–Darby Canine Kidney (MDCK) cells, human breast cancer resistance protein (BCRP)-transfected MDCK cells, human organic anion transporter (OAT)1-transfected MDCK cells, OAT3-transfected second portion of proximal tubule (S2) cells, human organic cation transporter (OCT)2-transfected S2 cells, human organic anion transporting polypeptide (OATP)1B1-transfected human embryonic kidney 293 (HEK293) cells and their MOCK cells were kindly provided by Japan Fuji Biomedical Co., Ltd. (Osaka, Japan). Cells were cultured in DMEM supplemented with 10% FBS, 100 units/mL penicillin and 100 […]. All cells were incubated in a humidified atmosphere of 95% air and 5% CO2 at 37 °C. A solution of 0.25% trypsin-EDTA was used to detach the cells from flasks. Cell culture flasks, 24-well cell culture plates, and transwell polycarbonate inserts (12 mm diameter, 0.4 μm pore size) were purchased from Corning Co-star Corp. (Bedford, MA).
Inhibitory effects of GA and PCA on efflux transporters MDR1 and BCRP were investigated with the fluorogenic substrates rhodamine 123 (10 µM) and lucifer yellow (10 µM), respectively. The positive control inhibitors of MDR1 and BCRP were verapamil (10 µM) and cyclosporine (20 µM), respectively. The efflux experiments were adapted from previously reported methods with minor modifications (Reznicek et al. [2017]). Briefly, MDCK-MDR1, MDCK-BCRP and MDCK-mock cells were trypsinized and uniformly suspended in the designated volume of HBSS to provide a density of 4.0 × 10^5 cells/mL. For 0.5 mL of cell suspension and 1.5 mL of HBSS buffer medium were added in the apical and basolateral compartments of 12-well Transwell plates. After cultivation for 7 d, cells were washed twice and equilibrated for 30 min at 37 °C with the pre-warmed HBSS buffer. The integrity of cell monolayers was verified by the determination of the value of transepithelial electrical resistance (TEER) using a Millipore Millicell-ERS system (Millipore Corporation, Bedford, MA) (200–300 Ω × cm^2). An aliquot of 1.5 mL transport buffer containing probe substrates was added in the basolateral compartment to initiate the efflux in the presence or absence of GA (50, 150, 500, 1500 and 5000 μg/L), PCA (10, 30, 100, 300 and 1000 μg/L) or positive inhibitors at 37 °C. An aliquot of 0.5 mL empty transport buffer was placed in the apical compartment. After 2 h of co-incubation, 100 μL of HBSS in the apical compartment was transferred to 96-well plates. Fluorescence was measured at 485 nm (excitation) and 546 nm (emission) for rhodamine 123, and 425 nm (excitation) and 528 nm (emission) for Lucifer yellow. The final concentration of DMSO in the assay was less than 0.1%. All experiments were performed in triplicate.

[1] = estimated, 14C-PAH 5 µM, MDCK-OAT1 cells

Row | Structure (SMILES) | IC50 (OAT1; [1]) [µM] | IC50 (OAT1) (OAT1; [1]) [µg/mL] | inhibitory effect on efflux of MDR1-mediated rhodamine 123 (MDR1) | efflux of rhodamine 123 compared with the control (MDR1; relatively high concentrations) | inhibitory effect on OAT1 (OAT1; GA 50–5000 μg/L, PCA 10–1000 μg/L) | activity at 2 h, 6.5 µM (MDR1; human, probe rhodamine 123 (10 µM), MDCK-MDR1 cells, PCA 1000 μg/L (6.5 µM), read-out: efflux of rhodamine 123, % of control) [%]
1 | O=C(O)c1cc(O)c(O)c(O)c1 [GA, gallic acid] | 3.73 | 0.6341 (≈ 3.73 µM) | no significant inhibitory effect | significant increase |  | 
2 | O=C(O)c1ccc(O)c(O)c1 [PCA, protocatechuic acid] |  |  | no significant inhibitory effect |  | no significant inhibitory effect | ~190
